We go through 5 molecules from patent publication US20070129334A1, “Orally Active Purine-Based Inhibitors of Heat Shock Protein 90” (CONFORMA THERAPEUTICS CORPORATION, priority 2001, published 2007).

Data set [1] concerns HER-2 receptor (Hsp90 client) in MCF-7 cells. Briefly: HER-2 degradation assay (MCF-7 cells, 16 h, phycoerythrin-labeled antibody and flow cytometry). It counts as cell-based, human.
For data set [2], the system named is MCF-7 breast cancer cells. Put plainly: MTS cell growth inhibition assay. Type of data set: cell-based, human. As to conditions: Homo sapiens, MCF-7 cells.
Data set [3] in a line: in vivo. As to conditions: Balb/C, mouse, plasma.
Data set [4] can be described thus: Pharmacokinetics in Balb/C mice (IV 10 mg/kg, PO 100 mg/kg). The following applies: for IV Parameters T1/2 / IV Parameters VSS / IV Parameters Cl: IV 10 mg/kg; for IV Parameters T1/2 / IV Parameters VSS / PO Parameters T1/2 / PO Parameters Cmax / PO Parameters Tmax / PO Parameters AUC: H3PO4 salts; for PO Parameters T1/2 / PO Parameters Cmax / PO Parameters Tmax / PO Parameters AUC: PO 100 mg/kg; for PO Parameters Cmax: plasma; for IV Parameters Cl: H3PO4 salts in phosphatidylcholine/water dispersion; for PO Parameters AUC: over 4 h; for PO Parameters % F: oral bioavailability, PO 100 mg/kg vs IV 10 mg/kg.

The test system of data set [5] is N87 xenograft model of human stomach cancer. The following applies: for tumor growth inhibition: N87.
A short description of data set [6]: Solubility in simulated gastric fluid, simulated intestinal fluid and serum. Type of data set: physicochemical.
A short description of data set [7]: Mouse pharmacokinetics after oral administration at 100 mg/kg.
Setting [8] is: Homo sapiens, MCF7, MCF-7 cells, 16 h, SEM 6-11% of the mean, read-out: HER-2 IC50.
Setting [9] is: MCF7, 120 h, 5 days, SEM 9-21% of the mean.

Where two headings read alike, the source gives them in different places. Bounds are passed on as bounds.

Regarding `CCC(C)NCCCn1c(Sc2cc(OC)ccc2I)nc2c(N)ncnc21` (racemic) [Compound 109, 9-(3-sec-Butylamino-propyl)-8-(2-iodo-5-methoxy-phenylsulfanyl)-9H-purin-6-ylamine (racemate)], the IC50 in data set [1] (setting [8]) was 210 nM. For the same molecule, the IC50 in data set [2] (setting [9]) came to 200 nM. The same molecule came in with a clearance in data set [3] (iv, 10 mg/kg) of 33 mL/min/kg. Besides, in data set [3] (po, 100 mg/kg), the AUC is 6330 ng·h/mL, the Tmax turned out to be 30 min and the bioavailability was determined as 28%. For the same molecule, in data set [4], the “IV Parameters T1/2” value amounted to 78 min, the “IV Parameters VSS” value stood at 3.4 L/kg, the “PO Parameters T1/2” value stood at 42 min and the “PO Parameters Cmax” value came to 4800 ng/mL.

Consider `COc1ccc(I)c(Sc2nc3c(N)ncnc3n2CCCNC(C)(C)C)c1` [Compound 95, 9-(3-tert-Butylamino-propyl)-8-(2-iodo-5-methoxy-phenylsulfanyl)-9H-purin-6-ylamine], for which the IC50 in data set [1] (setting [8]) came to 140 nM. In data set [2] (setting [9]), the IC50 stood at 200 nM. The bioavailability in data set [3] (oral, 100 mg/kg) is no less than 50%. Further, in data set [4], the “IV Parameters T1/2” value was 96 min, the “IV Parameters VSS” value worked out at 24 L/kg, the “IV Parameters Cl” value is 131 mL/min/kg and the “PO Parameters T1/2” value was 54 min. In data set [4], the “PO Parameters Tmax” value is 30 min, the “PO Parameters Cmax” value amounted to 6700 ng/mL, the “PO Parameters AUC” value amounted to 680 µg·min/mL and the “PO Parameters % F” value came to 97%.

In the case of `CCC(CC)NCCCn1c(Sc2cc(OC)ccc2I)nc2c(N)ncnc21` [Compound 108, 9-[3-(1-Ethyl-propylamino)-propyl]-8-(2-iodo-5-methoxy-phenylsulfanyl)-9H-purin-6-ylamine], the IC50 in data set [1] (setting [8]) is 210 nM. In data set [1] (Homo sapiens, MCF7, MCF-7 cells, read-out: HER-2 IC50), the IC50 amounted to 210 nM. The same molecule yielded an IC50 in data set [2] (setting [9]) of 200 nM. In addition, in data set [2] (MCF7), the IC50 was 200 nM. Also, in data set [3] (po, 100 mg/kg), the highest concentration (Cmax) worked out at 12 µM. Further, in data set [4], the “IV Parameters T1/2” value came out at 30 min, the “IV Parameters VSS” value was found to be 2.4 L/kg, the “IV Parameters Cl” value is 69 mL/min/kg and the “PO Parameters T1/2” value worked out at 36 min. In data set [4], the “PO Parameters Tmax” value came to 30 min, the “PO Parameters Cmax” value came out at 5800 ng/mL, the “PO Parameters AUC” value stood at 590 µg·min/mL and the “PO Parameters % F” value came out at 42%.

For `COc1ccc(I)c(Sc2nc3c(N)ncnc3n2CCNCC(C)(C)C)c1.O=P(O)(O)O` [Compound 132.H3PO4, 9-[2-(2,2-Dimethyl-propylamino)-ethyl]-8-(2-iodo-5-methoxy-phenylsulfanyl)-9H-purin-6-ylamine, H3PO4 salt], the tumor growth inhibition result in data set [5] (oral 2×100 mg/kg/day, 5 days/week) was “statistically significant (p=0.02) tumor growth inhibition”. The toxicity entry in data set [5] (oral 2×100 mg/kg/day, 5 days/week, mice) was “no overt toxicity”.

`Nc1ncnc2c1nc(Sc1nc3cccc(Cl)c3s1)n2CCNC1CC1` [Compound 264]: the IC50 in data set [1] (9-N-alkyl position SAR, head prints no unit, nM, read-out: HER-2) is 110 nM. Also, the “Serum (PH 7.4)” value in data set [6] (solubility in serum, PH 7.4) is 59 µg/mL. Besides, the “Gastric (PH 2.0)” value in data set [6] (solubility in simulated gastric fluid, PH 2.0) was 245 µg/mL. Besides, the “Intestinal (PH 6.5)” value in data set [6] (solubility in simulated intestinal fluid, PH 6.5) is 21 µg/mL. Also, the tumor growth inhibition in data set [5] (oral 200 mg/kg 5 days/week, day 39, vs control group) stood at 56%. Besides, the “oral bioavailability (in words)” value in data set [7] was “orally bioavailable”. In data set [7] (PO 100 mg/kg), the C-max was found to be 4513 ng/mL, the “Mouse PK PO AUC at 100 mg/kg PO” value was 430511 ng·min/mL, the “Mouse PK PO Cmax at 100 mg/kg” value is 4479 ng/mL and the “time of C-max after dosing” value stood at 30 min. Moreover, the half life in data set [7] (PO 100 mg/kg, estimated) is roughly 90 min.

By clearance is commonly meant the rate of elimination divided by the concentration. Lower therefore signals inefficient removal. For orientation: AUC means concentration integrated over time. A lower AUC goes with low exposure. Usually Tmax stands for the time at which the peak concentration occurs. For orientation: bioavailability means dose-corrected exposure relative to a reference, in per cent. Low values mean little systemic uptake, high ones much systemic uptake. As a reminder, the Cmax is the peak of the concentration-time curve.
